In patent US6569875B1, “Fungicide mixtures based on pyridin carboxamides and benzimidazoles or the precursors thereof” (priority 1997, dated 2003):

Tested on: Botrytis cinerea
Assay: Activity against Botrytis cinerea on bell pepper leaves (sprayed green bell pepper fruit disks, protective)
Assay type: in vivo
Details: single active ingredient, 4 ppm in the spray liquor, inoculated 2 hours after spray coating dried, 18° C., 4 days, visual evaluation
Description: The active ingredients, separately or together, are formulated as a 10% emulsion in a mixture of 63% by weight of cyclohexanone and 27% by eight of emulsifier, and diluted with water to the desired concentration.
Evaluation is carried out by determining the infected leaf areas in percent. These percentages are converted into efficacies. The efficacy (W) is calculated as follows using Abbot's formula: […]
α corresponds to the fungal infection of the treated plants in % and β corresponds to the fungal infection of the untreated (control) plants in % An efficacy of 0 means that the infection level of the treated plants corresponds to that of the untreated control plants; an efficacy of 100 means that the treated plants were not infected.
The expected efficacies of the mixtures of the active ingredients were determined using Colby's formula [R. S. Colby, Weeds 15, 20-22 (1967)] and compared with the observed efficacies.
Colby formula: E=x+Y−x·y/100
E expected efficacy, expressed in % of the untreated control, when using the mixture of the active ingredients A and B at the concentrations a and b x efficacy, expressed in % of the untreated control, when using active ingredient A at the concentration a y efficacy, expressed in % of the untreated control, when using active ingredient B at the concentration b Disks of green bell peppers were sprayed to runoff point with an aqueous preparation of active ingredient which had been prepared from a stock solution comprising 10% of active ingredient, 63% of cyclohexanone and 27% of emulsifier. 2 hours after the spray coating had dried on, the fruit disks were inoculated with a spore suspension of Botrytis cinerea containing 1.7×10^6 spores per ml of a 2% strength Biomalz solution. The inoculated fruit disks were subsequently incubated in humid chambers at 18° C. for 4 days. The Botyrtis infection on the diseased fruit disks was then evaluated visually.

`COC(=O)NC(=S)Nc1ccccc1NC(=S)NC(=O)OC` [Compound II.f, dimethyl 4,4′-(o-phenylene)-bis(3-thioallophanate)] and `CCCCNC(=O)n1c(NC(=O)OC)nc2ccccc21` [Compound II.a, methyl 1-(butylcarbamoyl)benzimidazol-2-ylcarbamate] are the same in “Efficacy in % of the untreated control” value: 10% for the first, 10% for the second.

Compared with `O=C(Nc1ccccc1-c1ccc(Cl)cc1)c1cccnc1Cl` [Compound I.2], `O=C(Nc1ccccc1-c1ccc(F)cc1)c1cccnc1Cl` [Compound I.1] is lower in “Efficacy in % of the untreated control” value: 40% for the first, 0% for the second.
